In publication PMC6018403 (Frontiers in Pharmacology, 2018):
Read-outs that look alike come from different tables or passages of the source.

How the values were obtained:
db/db mice = experiment: Evaluation of anti-diabetic effects in db/db mice; assay type: in vivo; settings: P < 0.05, metformin 100 mg/kg/d
Description: Eight-week-old male db/db mice (30–35 g) were used, and the details were described in Supplemental Data. The mice were randomly divided into eight groups. Mice were orally administered with metformin (100 mg/kg/d, n = 6), berberine (50 mg/kg/d, n = 6), glycyrrhizic acid (80 mg/kg/d, n = 6), berberine (50 mg/kg/d) combined with low-dose of glycyrrhizic acid (50 mg/kg/d, n = 6), berberine (50 mg/kg/d) combined with high-dose of glycyrrhizic acid (80 mg/kg/d, n = 6), berberine (50 mg/kg/d) combined with Gan-Cao (2.2 g/kg/d, n = 7), and GQD (18.2 g/kg/d, n = 7) for 4 weeks. For the control group, the […] were administered with an equal volume of water. On day 28, after fasted for 12 h, retro-orbital blood samples were collected, stand for 1 h, and then centrifuged (6,000 rpm, 4°C) for 20 min to obtain serum. Biochemical indicators such as blood glucose and insulin were determined on a Mindray BS-800 analyzer (Mindray Bio-Medical Electronics Co.).
Herbal materials and extracts.
The four component herbs, Puerariae Lobatae Radix (Ge-Gen, GG), Scutellariae Radix (Huang-Qin, HQ), Coptidis Rhizoma (Huang-Lian, HL), and Glycyrrhizae Radix et Rhizoma Praeparata cum Melle (Gan-Cao, GC) were purchased from Tianheng Pharmacy. GQD was prepared by decocting the four component herbs […]
of water for three times (1.5 h, 1.5 h, 0.5 h) to obtain the extracts, followed by a pre-extraction of Ge-Gen using 200 mL of water for 0.5 h. The decoctions were combined, filtered, and concentrated in vacuum at 50 °C. GQD-GC was prepared using the same procedure, except that Gan-Cao was removed from the formula. Final concentration of the GQD-GC extract was equivalent to 1.0 g of the crude drugs per mL. For single herb extracts, the herbs were decocted in 8-fold volume of water for three times (1.5 h, 1.5 h, 0.5 h) and then concentrated. […]
For anti-diabetic study, Eight-week-old male db/db mice (30–35 g) were purchased from Card Vince Laboratory animal Co., Ltd. The mice were bred in a cage (318 × 202 × 135 mm) in a breeding room at 25 °C, 60 ± 5% humidity, and a 12-h dark-light […]
On day 28, db/db mice were fasted for 12 h, and blood was collected and centrifuged to obtain serum for insulin and biochemical tests. After that, 150 µL of plasma was prepared by adding 150 µL of internal standard solution, 150 µL of methanol, and 300 µL of acetonitrile. The processing method was consistent with sample preparation for […]
3.1. Optimization of chromatographic separation
Different solvents (67% methanol, and 100% methanol) were compared to effectively extract both hydrophilic and hydrophobic compounds of GQD. […]
better extraction recovery for most compounds. […]

P-glycoprotein (P-gp) = biological target: T1, P-glycoprotein (P-gp) (Homo sapiens, UniProt P08183); experiment: P-gp inhibitor and inducer experiments on Caco-2 cell monolayer; assay type: in vitro ADME; settings: added together with BER 5 μM; verapamil 5 μM; rifampicin 5, 20, 50 μM
T1 construct: host or cells: Caco-2 (human colon adenocarcinoma) monolayers, passages 24-35
T1 sequence (P08183 whole entry): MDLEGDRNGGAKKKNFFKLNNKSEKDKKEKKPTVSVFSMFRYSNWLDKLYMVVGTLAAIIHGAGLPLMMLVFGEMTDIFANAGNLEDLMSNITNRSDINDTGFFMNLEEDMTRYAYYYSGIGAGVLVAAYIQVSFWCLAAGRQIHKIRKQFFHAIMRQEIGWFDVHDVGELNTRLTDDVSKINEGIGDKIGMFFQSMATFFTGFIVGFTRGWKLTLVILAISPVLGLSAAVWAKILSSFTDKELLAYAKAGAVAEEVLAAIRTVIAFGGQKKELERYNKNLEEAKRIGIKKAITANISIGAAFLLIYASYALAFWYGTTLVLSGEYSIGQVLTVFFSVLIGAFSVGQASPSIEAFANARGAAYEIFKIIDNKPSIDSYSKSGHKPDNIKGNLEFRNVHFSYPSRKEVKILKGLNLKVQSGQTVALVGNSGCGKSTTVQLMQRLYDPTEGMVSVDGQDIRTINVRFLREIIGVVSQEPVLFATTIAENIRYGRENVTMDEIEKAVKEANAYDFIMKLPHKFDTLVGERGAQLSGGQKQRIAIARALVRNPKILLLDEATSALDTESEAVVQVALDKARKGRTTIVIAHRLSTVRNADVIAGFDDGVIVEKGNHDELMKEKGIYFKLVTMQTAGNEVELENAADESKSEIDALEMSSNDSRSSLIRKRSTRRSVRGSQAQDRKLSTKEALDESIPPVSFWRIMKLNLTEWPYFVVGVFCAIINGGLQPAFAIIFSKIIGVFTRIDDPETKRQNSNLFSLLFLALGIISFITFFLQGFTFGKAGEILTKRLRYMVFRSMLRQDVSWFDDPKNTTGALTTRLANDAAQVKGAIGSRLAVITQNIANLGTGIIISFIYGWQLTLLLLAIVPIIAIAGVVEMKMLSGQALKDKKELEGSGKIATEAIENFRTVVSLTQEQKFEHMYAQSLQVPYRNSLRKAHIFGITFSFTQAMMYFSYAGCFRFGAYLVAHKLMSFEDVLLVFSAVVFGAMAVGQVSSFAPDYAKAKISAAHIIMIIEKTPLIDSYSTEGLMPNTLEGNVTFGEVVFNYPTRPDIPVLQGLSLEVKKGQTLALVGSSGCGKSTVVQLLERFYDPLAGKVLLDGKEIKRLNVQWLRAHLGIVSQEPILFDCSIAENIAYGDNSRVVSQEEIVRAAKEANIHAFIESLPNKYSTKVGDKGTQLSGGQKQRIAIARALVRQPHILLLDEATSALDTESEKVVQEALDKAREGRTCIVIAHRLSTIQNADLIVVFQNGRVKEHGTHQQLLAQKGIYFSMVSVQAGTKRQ
Description: The final concentration of GQD, GQD−GC, and Huang-Lian water extracts were 32, 28, and 6 μg/mL, respectively. […]
containing glucose (25 mM) and HEPES (10 mM). The final concentration of berberine was 5 µM. The final concentration of DMSO was below 1% (v/v). […]
inducer of Caco-2 cells, respectively. For the inhibitor experiments, the Caco-2 cells were cultivated in DMEM until the 21st day. After removal of the medium, the cells were incubated for 30 minutes with HBSS containing 5 µM of verapamil. For the inducer experiments, the cells were cultivated in DMEM until the 18th day, and then […]
was removed on the 21st day, and the cells were then incubated for 30 min with HBSS.
Berberine and glycyrrhizic acid were added to the system following HBSS incubation.
For all bidirectional transport assays, samples (300 µL) were collected after 30, 60, 90, […]
with an equal volume of HBSS. The samples were freeze-dried and then dissolved in 300 µL of methanol. The solutions were filtered through 0.22-µm membranes before […]
3. Inhibitor and inducer experiments […]
respectively. For the inhibition experiments, Caco-2 cells were cultivated in DMEM until the 21st day. After removal of the medium, the cells were incubated for 30 minutes with HBSS containing verapamil (5 µM). For induction experiments, the cells were cultivated in DMEM until the 18th day, and then cultivated in DMEM […]
The medium was removed on the 21st day, and the cells were then incubated for 30 min with HBSS. Berberine and glycyrrhizic acid were added to the system following HBSS incubation.

[1] = Multi-component pharmacokinetic study of GQD, GQD-GC and single herb extracts in rats (plasma, LC/MS/MS); assay type: in vivo, Sprague-Dawley rats
How it was run: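 Male Sprague-Dawley rats (220–250 g, n = 10 per group) dosed orally with GQD, GQD-GC (1.0 g crude drug/mL) or single-herb decoctions. Plasma analytes quantified by LC/MS/MS in positive-ESI SRM mode. Cmax and Tmax taken from measured data, other parameters by non-compartmental or compartmental analysis; mean ± SD.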

[2] = male, Sprague-Dawley, rat, in vivo, po, 3.54 g/kg
[3] = male, Sprague-Dawley, rat, in vivo, po, 16.5 g/kg
[4] = male, Sprague-Dawley, rat, in vivo, po, 18.9 g/kg

Compound: CN(C)C(=N)N=C(N)N [Metformin, metformin, reference compound]
- 4-week body weight (db/db mice): significant decrease

Compound: CO[C@H]1/C=C/O[C@@]2(C)Oc3c(C)c(O)c4c(O)c(c(/C=N/N5CCN(C)CC5)c(O)c4c3C2=O)NC(=O)/C(C)=C\C=C\[C@H](C)[C@H](O)[C@@H](C)[C@@H](O)[C@@H](C)[C@H](OC(C)=O)[C@@H]1C [rifampicin, reference compound]
- effect on the efflux of BER (P-glycoprotein (P-gp)): increased
- effect on the influx of BER (P-glycoprotein (P-gp)): decreased

Compound: O=c1c(-c2ccc(O)cc2)coc2c([C@@H]3O[C@H](CO)[C@@H](O)[C@H](O)[C@H]3O)c(O)ccc12 [Compound 7, puerarin]
- AUC(0-t) ([1]; male, Sprague-Dawley, rat, plasma, po, 9.45 g/kg, GG (Ge-Gen) group: rats, oral extract 9.45 g/kg, plasma, read-out: AUClast): 5020 ± 536 ng·h/mL
- AUC(0-t) ([1]; male, Sprague-Dawley, rat, plasma, po, 9.45 g/kg, Ge-Gen group: rats, oral 9.45 g/kg, plasma, read-out: AUClast): 5020 ± 536 ng·h/mL
- AUC(0-t) ([1]; male, Sprague-Dawley, rat, plasma, po, 16.5 g/kg, GQD-GC group (GQD without Gan-Cao): rats, oral 16.5 g/kg, plasma, read-out: AUClast): 5610 ± 279 ng·h/mL
- AUC(0-t) ([1]; male, Sprague-Dawley, rat, plasma, po, 18.9 g/kg, GQD group: rats, oral GQD extract 18.9 g/kg, plasma, read-out: AUClast): 8610 ± 766 ng·h/mL
- Cmax ([1]; male, Sprague-Dawley, rat, GG (Ge-Gen) group: rats, oral extract 9.45 g/kg, plasma, read-out: Cmax): 488 ± 23.9 ng/mL
- half-life ([1]; male, Sprague-Dawley, rat, GG (Ge-Gen) group: rats, oral extract 9.45 g/kg, plasma, read-out: T1/2 (converted)): 6.36 ± 4.39 h
- Tmax ([1]; male, Sprague-Dawley, rat, GG (Ge-Gen) group: rats, oral extract 9.45 g/kg, plasma, read-out: Tmax): 0.59 ± 0.01 h
- Cmax ([1]; male, Sprague-Dawley, rat, GQD group: rats, oral GQD extract 18.9 g/kg, plasma, read-out: Cmax): 577 ± 56.3 ng/mL
- half-life ([1]; male, Sprague-Dawley, rat, GQD group: rats, oral GQD extract 18.9 g/kg, plasma, read-out: T1/2 (converted)): 5.58 ± 2.9 h
- Tmax ([1]; male, Sprague-Dawley, rat, GQD group: rats, oral GQD extract 18.9 g/kg, plasma, read-out: Tmax): 1.2 ± 1.49 h
- Cmax ([1]; male, Sprague-Dawley, rat, GQD-GC group (GQD without Gan-Cao): rats, oral 16.5 g/kg, plasma, read-out: Cmax): 416 ± 232 ng/mL
- half-life ([1]; male, Sprague-Dawley, rat, GQD-GC group (GQD without Gan-Cao): rats, oral 16.5 g/kg, plasma, read-out: T1/2 (converted)): 8.29 ± 2.22 h
- Tmax ([1]; male, Sprague-Dawley, rat, GQD-GC group (GQD without Gan-Cao): rats, oral 16.5 g/kg, plasma, read-out: Tmax): 0.52 ± 0.07 h
- bioavailability in the GQD group compared with the Ge-Gen group ([1]; rats, oral): higher

Compound: COc1cc2c(cc1OC)-c1cc3ccc(OC)c(OC)c3c[n+]1CC2 [Compound 25, palmatine]
- increase of AUClast in GQD group compared with the Huang-Lian group ([1]; male, Sprague-Dawley, rat, in vivo, po): 32.7%
- Cmax [1, 2]: 5.96 ± 1.35 ng/mL
- Tmax [1, 2]: 0.25 ± 1.25 h
- half-life [1, 2]: 3.25 ± 2.43 h
- AUC(0-t) ([1]; male, Sprague-Dawley, rat, in vivo, po, 3.54 g/kg, AUClast): 51.5 ± 27.8 ng·h/mL
- Cmax [1, 3]: 4.75 ± 10.2 ng/mL
- Tmax [1, 3]: 0.26 ± 0.15 h
- half-life [1, 3]: 3.03 ± 2.36 h
- AUC(0-t) ([1]; male, Sprague-Dawley, rat, in vivo, po, 16.5 g/kg, AUClast): 43.4 ± 17 ng·h/mL
- Cmax [1, 4]: 17.1 ± 2.98 ng/mL
- Tmax [1, 4]: 0.17 ± 0.03 h
- half-life [1, 4]: 1.62 ± 1.82 h
- AUC(0-t) ([1]; male, Sprague-Dawley, rat, in vivo, po, 18.9 g/kg, AUClast): 68.3 ± 39.2 ng·h/mL
